# Test results taken from US5232913A, “Antihepatopathic composition” (Senju Pharmaceutical Co., Ltd., priority 1990, dated 1993).
# Read-outs that look alike come from different tables or passages of the source.
# System: acetaminophen-induced hepatic impairment
# Test: Effect on acetaminophen-induced hepatic impairment
# Assay type: in vivo, rat
# Conditions: Male SD rats; for inhibitory effect on acetaminophen-induced hepatic impairment (antihepatopathic effect, in words) / inhibition at 500 µmol/kg / s-GOT % inhibition / s-GPT % inhibition: 0.5 mmole/kg orally; for inhibitory effect on acetaminophen-induced hepatic impairment (antihepatopathic effect, in words): acetaminophen 300 mg/kg i.p.; for s-GOT / s-GPT: test substance 0.5 mmole/kg orally, one hour later acetaminophen 300 mg/kg i.p., mean ± S.E., n = 7-10; for s-GOT / s-GPT / inhibition at 500 µmol/kg / s-GOT % inhibition / s-GPT % inhibition: serum after 24 hours; for inhibition at 500 µmol/kg: Rattus norvegicus; for inhibition at 500 µmol/kg / s-GOT % inhibition / s-GPT % inhibition: one hour before acetaminophen 300 mg/kg i.p., versus physiological saline control
# Method: Method; Male SD rats (body weights ca. 180 g) purchased form Japan SLC were used. The test substance was orally administered (0.5 mmole/kg) and one hour later 300 mg/kg of acetaminophen was intraperitoneally administered. After 24 hours, blood was drawn from the abdominal aorta and the serum was separated. Using this serum, s-GOT and GPT were determined.
structure (smiles),measurement,setting,value
"CC(CSC[C@H](NC(=O)CC[C@H](N)C(=O)O)C(=O)NCC(=O)O)C(=O)O (stereo partly drawn) [compound 1, S-(2-carboxypropyl)glutathione]","inhibitory effect on acetaminophen-induced hepatic impairment (antihepatopathic effect, in words)",,significant antihepatopathic effects
same,s-GOT,,1259 ± 424 IU/l
same,s-GPT,,337 ± 117 IU/l
same,inhibition at 500 µmol/kg,read-out: s-GOT % inhibition,76.1%
same,inhibition at 500 µmol/kg,read-out: s-GPT % inhibition,83.6%
"CCOC(=O)C(C)CSC[C@H](NC(=O)CC[C@H](N)C(=O)O)C(=O)NCC(=O)O (stereo partly drawn) [compound 2, S-(2-carbethoxypropyl)glutathione]","inhibitory effect on acetaminophen-induced hepatic impairment (antihepatopathic effect, in words)",,significant antihepatopathic effects
same,s-GOT,,841 ± 354 IU/l
same,s-GPT,,195 ± 81 IU/l
same,inhibition at 500 µmol/kg,read-out: s-GOT % inhibition,84%
same,inhibition at 500 µmol/kg,read-out: s-GPT % inhibition,90.5%
"N[C@@H](CCC(=O)N[C@@H](CSCCC(=O)O)C(=O)NCC(=O)O)C(=O)O [compound 3, S-(2-Carboxyethyl)glutathione]","inhibitory effect on acetaminophen-induced hepatic impairment (antihepatopathic effect, in words)",,significant antihepatopathic effects
same,s-GOT,,1968 ± 626 IU/l
same,s-GPT,,530 ± 180 IU/l
same,inhibition at 500 µmol/kg,read-out: s-GOT % inhibition,62.6%
same,inhibition at 500 µmol/kg,read-out: s-GPT % inhibition,74.3%
"CCOC(=O)CCSC[C@H](NC(=O)CC[C@H](N)C(=O)O)C(=O)NCC(=O)O [compound 4, S-(2-Carbethoxyethyl)glutathione]","inhibitory effect on acetaminophen-induced hepatic impairment (antihepatopathic effect, in words)",,significant antihepatopathic effects
same,s-GOT,,1935 ± 530 IU/l
same,s-GPT,,598 ± 226 IU/l
same,inhibition at 500 µmol/kg,read-out: s-GOT % inhibition,63.3%
same,inhibition at 500 µmol/kg,read-out: s-GPT % inhibition,71%
"CC(C)COC(=O)C(C)CSC[C@H](NC(=O)CC[C@H](N)C(=O)O)C(=O)NCC(=O)O (stereo partly drawn) [compound 5, S-(2-Methyl-2-carboisobutoxyethyl)glutathione]",s-GOT % inhibition,,43.6%
same,s-GPT % inhibition,,32.8%
same,s-GOT,,2972 ± 803 IU/l
same,s-GPT,,1384 ± 417 IU/l
"CC(CSC[C@H](NC(=O)CC[C@H](N)C(=O)O)C(=O)NCC(=O)O)C(=O)OCc1ccccc1 (stereo partly drawn) [compound 6, S-[2-Methyl-2-carbobenzoxyethyl]glutathione]",s-GOT,,2968 ± 824 IU/l
same,s-GPT,,1384 ± 421 IU/l
same,inhibition at 500 µmol/kg,read-out: s-GOT % inhibition,43.7%
same,inhibition at 500 µmol/kg,read-out: s-GPT % inhibition,32.8%
"CCOC(=O)C(C)CSCC(NC(=O)CCC(N)C(=O)O)C(=O)NCC(=O)OC(C)C (stereo not drawn) [compound 7, S-(2-Methyl-2-carbethoxyethyl)glutathione isopropyl ester]",s-GOT % inhibition,,70.2%
same,s-GPT % inhibition,,74.3%
same,"inhibitory effect on acetaminophen-induced hepatic impairment (antihepatopathic effect, in words)",,significant antihepatopathic effects
same,s-GOT,,1570 ± 511 IU/l
same,s-GPT,,529 ± 168 IU/l
"CC(C)COC(=O)C(C)CSCC(NC(=O)CCC(N)C(=O)O)C(=O)NCC(=O)OC(C)C (stereo not drawn) [compound 8, S-(2-Methyl-2-carbiosobutoxyethyl)glutathione isopropyl ester]",s-GOT % inhibition,,96.9%
same,s-GPT % inhibition,,97.5%
same,"inhibitory effect on acetaminophen-induced hepatic impairment (antihepatopathic effect, in words)",,significant antihepatopathic effects
same,s-GOT,,163 ± 89 IU/l
same,s-GPT,,52 ± 29 IU/l
"CC(C)OC(=O)CC(C)SC[C@H](NC(=O)CC[C@H](N)C(=O)O)C(=O)NCC(=O)O (stereo partly drawn) [compound 9, S-(1-Methyl-2-carboisopropoxyethyl)glutathione]","inhibitory effect on acetaminophen-induced hepatic impairment (antihepatopathic effect, in words)",,significant antihepatopathic effects
same,s-GOT,,171 ± 71 IU/l
same,s-GPT,,43 ± 21 IU/l
same,inhibition at 500 µmol/kg,read-out: s-GOT % inhibition,96.8%
same,inhibition at 500 µmol/kg,read-out: s-GPT % inhibition,97.9%
